Values quoted from earlier work, collected in patent US12357619B2, “Noradrenergic and specific serotonergic anxiolytic and antidepressant, method for the production and use thereof” (ALLA CHEM, LLC, priority 2020, dated 2025).

Target: T1, Serotonin 5-HT2C (Homo sapiens, UniProt P28335)
T1 sequence (P28335 33-458): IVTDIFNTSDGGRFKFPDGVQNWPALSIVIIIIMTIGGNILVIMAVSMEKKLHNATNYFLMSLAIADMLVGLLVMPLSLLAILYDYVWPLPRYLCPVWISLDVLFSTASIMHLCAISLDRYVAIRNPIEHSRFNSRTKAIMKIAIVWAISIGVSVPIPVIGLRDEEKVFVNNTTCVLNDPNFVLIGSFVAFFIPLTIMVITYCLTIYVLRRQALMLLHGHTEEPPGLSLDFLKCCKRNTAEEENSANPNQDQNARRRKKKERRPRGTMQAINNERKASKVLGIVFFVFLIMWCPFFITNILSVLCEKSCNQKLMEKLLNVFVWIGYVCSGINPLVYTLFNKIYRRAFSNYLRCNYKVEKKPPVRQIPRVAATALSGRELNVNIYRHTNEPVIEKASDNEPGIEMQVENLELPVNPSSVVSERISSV
Conditions: from en.wikipedia.org/wiki/Mirtazapine; cited from earlier work

## CN1CCN2c3ncccc3Cc3ccccc3C2C1 (stereo not shown) [Mirtazapine]
  Ki: 8.9 to 39 nM
